A short description of series [1]: DPPH free radical scavenging assay. As to conditions: absorbance 517 nm, 20 min incubation; read-out: DPPH radical scavenging activity IC50 ± SEM. As for the experimental part: The ability of the sample to scavenge, 2-diphenyl-1-picrylhydrazyl (DPPH) free radicals was evaluated by standard method. The sample solutions were prepared in absolute alcohol, ranging from 0.01 mg/mL to 1 mg/mL. A total of 500 μL of sample was added with 500 µL of 2 µmol DPPH solution. After 20 min of incubation, the samples were placed in the dark at room temperature, the absorbance was taken at 517 nm. 500 µL of prepared DDPH solution and 500 µL of absolute alcohol were used as control. The similar procedure was repeated for ascorbic acid as standard[41],[42].
(§1) The percentage inhibition of radical scavenging activity was calculated as illustrated, %Inhibition=(AbsorbanceControl−AbsorbanceSample)/AbsorbanceControl×100
For orientation: Loss of DPPH colour is used to gauge radical scavenging.

Series [2] can be described thus: ABTS free radical cation scavenging assay. To be noted: absorbance 734 nm, 30 min incubation; read-out: ABTS radical scavenging activity IC50 ± SEM. As for the experimental part: The (ABTS+) 2,2ʹ-azino-bis(3-ethylbenzothiazoline-6-sulphonic acid) free radical cation scavenging ability of the compounds was determined by standard method. 7 mM ABTS was dissolved in distilled water and 2.45 mM potassium persulfate was added. The solution was kept in the dark for 12–16 h at room temperature. The sample solutions were prepared in absolute alcohol ranging from 0.01 mg/mL to 1 mg/mL. The samples were added with ABTS solution and incubated for 30 min. The absorbance was taken at 734 nm and the procedure was repeated for ascorbic acid as standard.
as §1

One may read the IC50 as the concentration at which inhibition is half-maximal. What is called melting point is the temperature, or range, at which the solid turns liquid. For `O=c1c(/C=N\Nc2nc(-c3ccc(Cl)cc3Cl)cs2)coc2ccccc12` [Compound 10, (Z)-3-((2-(4-(2,4-Dichlorophenyl)thiazol-2-yl)hydrazono)methyl)-4H-chromen-4-one], the melting point was in the range of 243 to 245 °C. Besides, the IC50 in series [1] came out at 90 ± 170 nM. For the same compound, the IC50 in series [2] came to 677 ± 260 nM.

`Cc1ccc2occ(/C=N\Nc3nc(-c4ccc(Cl)cc4Cl)cs3)c(=O)c2c1` [Compound 21, (Z)-3-((2-(4-(2,4-Dichlorophenyl)thiazol-2-yl)hydrazono)methyl)-6-methyl-4H-chromen-4-one] registered a melting point of 245 to 247 °C. Moreover, in series [1], the concentration for half-maximal inhibition (IC50) stood at 684 ± 130 nM. The IC50 in series [2] is 710 ± 90 nM.

Compound `N#Cc1ccc(-c2csc(N/N=C\c3coc4ccccc4c3=O)n2)cc1` [Compound 14, (Z)-4-(2-(2-((4-Oxo-4H-chromen-3-yl)methylene)hydrazinyl)thiazol-4-yl)benzonitrile] registered a melting point of 225 to 227 °C. Further, the IC50 in series [1] was 1290 ± 100 nM. Also, the 50% inhibitory concentration (IC50) in series [2] came out at 1260 ± 70 nM.

`Cc1ccc2occ(C=O)c(=O)c2c1` [Compound 2, 6-Methyl-4-oxo-4H-chromene-3-carbaldehyde]: the melting point lay in the range of 173 to 175 °C. For the same compound, the IC50 in series [1] is 2230 ± 600 nM. For the same compound, the IC50 in series [2] is 2230 ± 60 nM.

Compound `Cc1ccc2occ(/C=N\Nc3nc(-c4ccccc4O)cs3)c(=O)c2c1` [Compound 18, (Z)-3-((2-(4-(2-Hydroxyphenyl)thiazol-2-yl)hydrazono)methyl)-6-methyl-4H-chromen-4-one] yielded a melting point of 230 to 232 °C. Also, the IC50 in series [1] amounted to 1660 ± 600 nM. In addition, in series [2], the half-inhibitory concentration (IC50) came out at 1730 ± 50 nM.

Take `Cc1ccc2occ(/C=N\Nc3nc(-c4ccc(-c5ccccc5)cc4)cs3)c(=O)c2c1` [Compound 27, (Z)-3-((2-(4-(Biphenyl-4-yl)thiazol-2-yl)hydrazono)methyl)-6-methyl-4H-chromen-4-one]: the melting point was 235 to 237 °C. Also, the IC50 in series [1] was determined as 1340 ± 70 nM. Moreover, in series [2], the IC50 was 1290 ± 70 nM.

In the case of `Cc1ccc2occ(/C=N\NC(N)=S)c(=O)c2c1` [Compound 4, (Z)-2-((6-Methyl-4-oxo-4H-chromen-3-yl)methylene)hydrazinecarbothioamide], the melting point lay in the range of 245 to 247 °C. Also, the IC50 in series [1] was 1140 ± 120 nM. Also, the IC50 in series [2] amounted to 1260 ± 100 nM.

As to `Cc1ccc2occ(/C=N\Nc3nc(-c4cccc([N+](=O)[O-])c4)cs3)c(=O)c2c1` [Compound 25, (Z)-6-Methyl-3-((2-(4-(3-nitrophenyl)thiazol-2-yl)hydrazono)methyl)-4H-chromen-4-one], the melting point fell in the range of 240 to 242 °C. In addition, the IC50 in series [1] was found to be 1310 ± 60 nM. Moreover, the IC50 in series [2] turned out to be 1300 ± 110 nM.

`O=c1c(/C=N\Nc2nc(-c3ccc(Cl)c(Cl)c3)cs2)coc2ccccc12` [Compound 9, (Z)-3-((2-(4-(3,4-Dichlorophenyl)thiazol-2-yl)hydrazono)methyl)-4H-chromen-4-one] came in with a melting point of 245 to 247 °C. Further, in series [1], the IC50 came to 314 ± 120 nM. Besides, in series [2], the IC50 was 784 ± 120 nM.

As to `Cc1ccc2occ(/C=N\Nc3nc(-c4cccc(O)c4)cs3)c(=O)c2c1` [Compound 17, (Z)-3-((2-(4-(3-Hydroxyphenyl)thiazol-2-yl)hydrazono)methyl)-6-methyl-4H-chromen-4-one], the melting point lay within 237 to 239 °C. For the same compound, the IC50 in series [1] was found to be 1340 ± 90 nM. The IC50 in series [2] turned out to be 1380 ± 50 nM.

For the compound `Cc1ccc2occ(/C=N\Nc3nc(-c4cccc(Br)c4)cs3)c(=O)c2c1` [Compound 19, (Z)-3-((2-(4-(3-Bromophenyl)thiazol-2-yl)hydrazono)methyl)-6-methyl-4H-chromen-4-one], the IC50 in series [1] was 781 ± 180 nM; in series [2] it was 584 ± 70 nM.

`NC(=S)N/N=C\c1coc2ccccc2c1=O` [Compound 3, (Z)-2-((4-Oxo-4H-chromen-3-yl)methylene) hydrazinecarbothioamide] yielded a melting point of 240 to 242 °C. Further, the IC50 in series [1] was 1900 ± 60 nM. Moreover, in series [2], the IC50 was found to be 1920 ± 90 nM.

For the compound `O=c1c(/C=N\Nc2nc(-c3ccccc3)cs2)coc2ccccc12` [Compound 5, (Z)-3-((2-(4-Phenylthiazol-2-yl)hydrazono)methyl)-4H-chromen-4-one], the melting point is 223 to 225 °C. Moreover, the IC50 in series [1] was 1110 ± 150 nM. In series [2], the IC50 amounted to 1080 ± 150 nM.

Turning to `Cc1ccc2occ(/C=N\Nc3nc(-c4ccc(C#N)cc4)cs3)c(=O)c2c1` [Compound 26, (Z)-4-(2-(2-((6-Methyl-4-oxo-4H-chromen-3-yl)methylene)hydrazinyl)thiazol-4-yl)benzonitrile], the melting point lay within 238 to 240 °C. For the same compound, in series [1], the IC50 turned out to be 1300 ± 130 nM. The IC50 in series [2] came to 1280 ± 40 nM.

The compound `O=c1c(/C=N\Nc2nc(-c3cccc([N+](=O)[O-])c3)cs2)coc2ccccc12` [Compound 13, (Z)-3-((2-(4-(3-Nitrophenyl)thiazol-2-yl)hydrazono)methyl)-4H-chromen-4-one] registered a melting point of 235 to 237 °C. Further, the IC50 in series [1] turned out to be 1740 ± 40 nM. In series [2], the IC50 amounted to 1890 ± 50 nM.

In turn, `Cc1ccc2occ(/C=N\Nc3nc(-c4cccc(Cl)c4)cs3)c(=O)c2c1` [Compound 24, (Z)-3-((2-(4-(3-Chlorophenyl)thiazol-2-yl)hydrazono)methyl)-6-methyl-4H-chromen-4-one] came in with a melting point of 230 to 232 °C. Besides, the IC50 in series [1] was found to be 990 ± 120 nM. Also, the IC50 in series [2] is 1020 ± 40 nM.

For `O=c1c(/C=N\Nc2nc(-c3cccc(Br)c3)cs2)coc2ccccc12` [Compound 8, (Z)-3-((2-(4-(3-Bromophenyl)thiazol-2-yl)hydrazono)methyl)-4H-chromen-4-one], the melting point lay in the range of 225 to 227 °C. For the same compound, in series [1], the IC50 worked out at 912 ± 230 nM. The IC50 in series [2] worked out at 914 ± 190 nM.

As to `Cc1ccc2occ(/C=N\Nc3nc(-c4ccc(Cl)cc4)cs3)c(=O)c2c1` [Compound 23, (Z)-3-((2-(4-(4-Chlorophenyl)thiazol-2-yl)hydrazono)methyl)-6-methyl-4H-chromen-4-one], the melting point lay within 245 to 247 °C. Moreover, the concentration for half-maximal inhibition (IC50) in series [1] came to 840 ± 100 nM. For the same compound, the IC50 in series [2] came out at 820 ± 180 nM.

`O=c1c(/C=N\Nc2nc(-c3cccc(Cl)c3)cs2)coc2ccccc12` [Compound 12, (Z)-3-((2-(4-(3-Chlorophenyl)thiazol-2-yl)hydrazono)methyl)-4H-chromen-4-one] yielded a melting point of 228 to 230 °C. The half-inhibitory concentration (IC50) in series [1] is 1050 ± 30 nM. Moreover, in series [2], the IC50 came out at 1080 ± 80 nM.

As for `O=C1O[C@H]([C@@H](O)CO)C(O)=C1O` [Ascorbic acid, reference compound], the IC50 in series [1] came to 330 ± 180 nM; in series [2], 530 ± 300 nM.

As to `O=c1c(/C=N\Nc2nc(-c3ccc(Cl)cc3)cs2)coc2ccccc12` [Compound 11, (Z)-3-((2-(4-(4-Chlorophenyl)thiazol-2-yl)hydrazono)methyl)-4H-chromen-4-one], the melting point is 239 to 241 °C. The IC50 in series [1] is 922 ± 220 nM. Further, in series [2], the IC50 is 918 ± 140 nM.

As to `O=c1c(/C=N\Nc2nc(-c3cccc(O)c3)cs2)coc2ccccc12` [Compound 6, (Z)-3-((2-(4-(3-Hydroxyphenyl)thiazol-2-yl)hydrazono)methyl)-4H-chromen-4-one], the IC50 in series [1] is 1900 ± 30 nM; in series [2], 1892 ± 10 nM.

Compound `Cc1ccc2occ(/C=N\Nc3nc(-c4ccc(Cl)c(Cl)c4)cs3)c(=O)c2c1` [Compound 22, (Z)-3-((2-(4-(3,4-Dichlorophenyl)thiazol-2-yl)hydrazono)methyl)-6-methyl-4H-chromen-4-one] returned a melting point of 246 to 248 °C. Also, the IC50 in series [1] amounted to 688 ± 170 nM. In addition, in series [2], the concentration for half-maximal inhibition (IC50) was determined as 719 ± 100 nM.

Compound `Cc1ccc2occ(/C=N\Nc3nc(-c4ccc(Br)cc4)cs3)c(=O)c2c1` [Compound 20, (Z)-3-((2-(4-(4-Bromophenyl)thiazol-2-yl)hydrazono)methyl)-6-methyl-4H-chromen-4-one] had a melting point of 235 to 237 °C. In addition, in series [1], the IC50 was found to be 611 ± 290 nM. Also, the IC50 in series [2] was determined as 660 ± 160 nM.

Turning to `Cc1ccc2occ(/C=N\Nc3nc(-c4ccccc4)cs3)c(=O)c2c1` [Compound 16, (Z)-6-Methyl-3-((2-(4-phenylthiazol-2-yl)hydrazono)methyl)-4H-chromen-4-one], the melting point is 235 to 237 °C. Moreover, the IC50 in series [1] is 1370 ± 200 nM. Also, the IC50 in series [2] is 1320 ± 200 nM.

`O=c1c(/C=N\Nc2nc(-c3ccc(-c4ccccc4)cc3)cs2)coc2ccccc12` [Compound 15, (Z)-3-((2-(4-(Biphenyl-4-yl)thiazol-2-yl)hydrazono)methyl)-4H-chromen-4-one] had a melting point of 234 to 236 °C. Also, the IC50 in series [1] worked out at 1410 ± 50 nM. In series [2], the IC50 amounted to 1640 ± 40 nM.

For the compound `O=Cc1coc2ccccc2c1=O` [Compound 1, 4-Oxo-4H-chromene-3-carbaldehyde], the IC50 in series [1] is 2230 ± 790 nM; in series [2] it was 3740 ± 600 nM.

In turn, `O=c1c(/C=N\Nc2nc(-c3ccc(Br)cc3)cs2)coc2ccccc12` [Compound 7, (Z)-3-((2-(4-(4-Bromophenyl)thiazol-2-yl)hydrazono)methyl)-4H-chromen-4-one] had a melting point of 230 to 232 °C. Further, the IC50 in series [1] came to 892 ± 90 nM. Moreover, the IC50 in series [2] turned out to be 830 ± 250 nM.

The record behind these values is PMC5717224, “New Hybrid Hydrazinyl Thiazole Substituted Chromones: As Potential α-Amylase Inhibitors and Radical (DPPH & ABTS) Scavengers” (Scientific Reports, 2017).
